Values quoted from earlier work in patent EP3466870B1, “SURFACE-MODIFIED SODIUM HYPOCHLORITE PENTAHYDRATE CRYSTAL, AND METHOD FOR PRODUCING SAME” (Nippon Light Metal Company, Ltd., priority 2016, dated 2017).
Where two headings read alike, the source gives them in different places.

Settings: in water at 25°C

Structure (SMILES)	pKa (first value listed)	pKa (second value listed)
O=C(O)O [carbonic acid]	6.11	9.87
O=C(O)C(=O)O [oxalic acid]	1.04	3.82
